Results from patent publication US20150173370A1, “S[…] CONTROL FROM COMBINATIONS OF 2,4-D-CHOLINE, GLYPHOSATE, AND GLUFOSINATE” (Dow AgroSciences LLC, priority 2013, published 2015).
Several values for one entry are separate records, joined by “and”; a condition that tells them apart may be missing. Equal entries are not always repeated.

Assays:
AAD12 Soybean (GLXMA) [1] = assay: Field trials, crop tolerance (% visual necrosis); format: in vivo, Glycine max L. (soybean)
Method: (§1) Field trials were conducted under agricultural field conditions in multiple states in the United States, including but not limited to Arkansas, Iowa, Illinois, Indiana, Kansas, Minnesota, Mississippi, Missouri, New York, Tennessee and Wisconsin. Trials were established as RCB (randomized complete block) design, with 3-4 replicates per treatment, and plot sizes varying from 5-10 feet (ft) wide by 12-30 ft long. Treatments were applied with small plot backpack sprayers, using pressurized carbon dioxide (CO2) as propellant. Pressure varied from 17-52 pounds per square inch (psi), with spray tips typically of a Flat Fan type applying water diluent at 15 gallons per acre (GPA). Boom sizes varied from 5-11 ft in width. Treatments were applied to soybean, cotton, corn or fallow crop land. Weed sizes varied, but all treatments were applied as post-emergence treatments to weeds from 2 leaf to 2 tiller growth stages varying from 3 to 17 inches in height. The weed spectrum included, but was not limited to, Amaranthus palmeri S. Wats. (Palmer amaranth, AMAPA), Ambrosia trifida L. (giant ragweed, AMBTR), Conyza canadensis (L.) Cronq. (horseweed, ERICA) and Salsola tragus L. (Russian thistle, SASKR).
Glyphosate-, 2,4-D- and glufosinate-tolerant soybeans, corn or cotton comprising genes for tolerance for each herbicide as described above were used in all trials either as a breeding stack of one to three herbicide-tolerant events or as a molecular stack where all three herbicide tolerance traits were transformed into a single event.
The 2,4-D-choline salt plus glyphosate premix formulation was a 400 g ae/L SL containing 195 g ae/L 2,4-D-choline salt and 205 g ae/L glyphosate-dimethylammonium (DMA) salt. […] All treatments were mixed in water at appropriate formulated product rates to achieve the desired rates as shown based on a unit area of application (hectare). Treatments were rated at 1 to 28 days after application (DAA) as compared to the untreated control plants. The trial sites had naturally occurring populations of weeds. The treated plots and control plots were rated blind at various intervals after application.
Colby's equation was used to determine the herbicidal effects expected from the mixtures (Colby, S. R. Calculation of the synergistic and antagonistic response of herbicide combinations. Weeds 1967, 15, 20-22). A t-test (alpha=0.05) between Colby predictions and observed combinations was used to test for significant differences indicating synergy or antagonism using replicate data.
However, the experiments described herein were performed such that active ingredients A and B were combined and only the efficacy of the combination was determined. As such, Colby's equation simplifies to
Z=observed efficacy of a combination of active ingredient A (2,4-D-choline) and active ingredient B (glyphosate-DMA) at the same concentration as used in the mixture;

AAD12 Soybean (GLXMA) [2] = assay: Field trials, crop tolerance (% visual chlorosis); format: in vivo, Glycine max L. (soybean)
Method: as §1, with “SASKR). […]” for “SASKR).”
However, the experiments described herein were performed such that active ingredients A and B were combined and only the efficacy of the combination was determined. […]

In the case of `CP(=O)(O)CCC(N)C(=O)O` (stereo not shown) [Glufosinate-Ammonium, ammonium (3-amino-3-carboxypropyl)(methyl)phosphinate], the “Mean % Visual Necrosis” value (AAD12 Soybean (GLXMA) [1]; 2 DAA, 1084 g ae/ha alone) is reported as 25.0%, the “Mean % Visual Necrosis” value (AAD12 Soybean (GLXMA) [1]; 3 DAA, 542 g ae/ha alone) is reported as 0.0% and the “Mean % Visual Necrosis” value (AAD12 Soybean (GLXMA) [1]; 3 DAA, 822 g ae/ha alone) is reported as 0.8%. The “Mean % Visual Necrosis” value (AAD12 Soybean (GLXMA) [1]; 3 DAA, 1084 g ae/ha alone) was 3.0% and 8.5% and 1.5% and 1.3%, the “Mean % Visual Necrosis” value (AAD12 Soybean (GLXMA) [1]; 5 DAA, 542 g ae/ha alone) was 2.8% and the “Mean % Visual Necrosis” value (AAD12 Soybean (GLXMA) [1]; 7 DAA, 542 g ae/ha alone) was 0.5% and 0.3%. For the same compound, the “Mean % Visual Necrosis” value (AAD12 Soybean (GLXMA) [1]; 7 DAA, 822 g ae/ha alone) was 0.8% and 0.0% and 10.0% and 1.0% and 1.3%, the “Mean % Visual Necrosis” value (AAD12 Soybean (GLXMA) [1]; 7 DAA, 1084 g ae/ha alone) was 3.3% and 1.3% and 10.0% and 2.0% and 2.3% and the “Mean % Visual Necrosis” value (AAD12 Soybean (GLXMA) [1]; 8 DAA, 822 g ae/ha alone) was 7.5%. For the same compound, the “Mean % Visual Necrosis” value (AAD12 Soybean (GLXMA) [1]; 8 DAA, 1084 g ae/ha alone) was 10.0% and 12.5% and 6.5%, the “Mean % Visual Necrosis” value (AAD12 Soybean (GLXMA) [1]; 9 DAA, 822 g ae/ha alone) was 6.0% and the “Mean % Visual Necrosis” value (AAD12 Soybean (GLXMA) [1]; 10 DAA, 1084 g ae/ha alone) was 2.3%. The “Mean % Visual Necrosis” value (AAD12 Soybean (GLXMA) [1]; 14 DAA, 822 g ae/ha alone) was 0.0% and 1.0%, the “Mean % Visual Necrosis” value (AAD12 Soybean (GLXMA) [1]; 14 DAA, 1084 g ae/ha alone) was 5.0% and 2.0% and the “Mean % Visual Necrosis” value (AAD12 Soybean (GLXMA) [1]; 16 DAA, 542 g ae/ha alone) was 3.0%. For the same compound, the “Mean % Visual Necrosis” value (AAD12 Soybean (GLXMA) [1]; 16 DAA, 822 g ae/ha alone) was 5.0%, the “Mean % Visual Necrosis” value (AAD12 Soybean (GLXMA) [1]; 16 DAA, 1084 g ae/ha alone) was 1.8% and the “Mean % Visual Chlorosis” value (AAD12 Soybean (GLXMA) [2]; 10 DAA, 1084 g ae/ha alone) was 8.5% and 10.0%. For the same compound, the “Mean % Visual Chlorosis” value (AAD12 Soybean (GLXMA) [2]; 14 DAA, 542 g ae/ha alone) was 5.8%.
